Test results taken from patent US20210228523A1, “MODULATORS OF SESTRIN-GATOR2 INTERACTION AND USES THEREOF” (Navitor Pharmaceuticals, Inc., priority 2017, published 2021).

System: mTORC1 signaling pathway
Assay: Western blot of mTORC1 substrates in crude synaptosomes from rat prefrontal cortex
Format: in vivo
Details: Example B, 1 hr after administration
Experimental: Study Design. Forty-eight (48) male Sprague Dawley rats weighing between 175 and 200 g were randomized into 8 study groups (n=6/group), following a 5-day acclimation period. On study day 0, rats in Groups 3 and 7 received a single dose of Sal while Groups 4 and 8 received a single dose of Ket (10 mg/kg) each by i.p. injection. The rats in Groups 1 and 5 received a single dose of Veh while Groups 2 and 6 received a single dose of NV-5138 (160 mg/kg) each by oral gavage. One hour after dosing, rats in Groups 1-4 were sacrificed by conscious decapitation and followed by collection of the PFC. Crude synaptosomes were prepared from the PFC and three mTORC1 substrates, pmTOR, pp70S6K and p4E-BP1, and corresponding total protein loading controls (mTOR, p70S6K, and GAPDH) were quantitated by WB. Twenty-four hours after dosing, rats in Groups 5-8 were sacrificed by conscious decapitation and collection of the PFC. Crude synaptosomes were prepared from the PFC and the synaptic proteins (GluR1 and PSD95), as well as the total protein loading control (GAPDH), were quantitated by WB.
Formulation of Ket and NV-5138 for Administration. Ket (Sigma, cat #K1884) was dissolved in Sal at a concentration of 10 mg/mL. A volume of 1 mL/kg was injected i.p. NV-5138 (Navitor, Lot #06) was prepared by dissolving in Veh at a concentration of 50 mg/mL. The dosing volume based on the weight of the animal (3.2 mL/kg) was administered by oral gavage. Test articles were prepared the day of dosing.
Prefrontal Cortex Synaptosome Preparations. The brain was dissected from rats in all groups (n=6/group) and rinsed in PBS. The PFC was collected as shown in FIG. 6 and homogenized at 4° C. in homogenization buffer (0.32 M sucrose, 20 mM HEPES at pH 7.4, 1 mM EDTA, 5 mM NaF, 1 mM NaVO3 and protease inhibitor cocktail (Roche; Ser. No. 19/543,200)). The homogenate was centrifuged for 10 min at 2,800 rpm at 4° C. after which the supernatant was removed and re-centrifuged at 12,000 rpm for 10 min at 4° C. The resulting pellet containing crude synaptosomes was re-suspended in Lysis buffer (50 mM Tris-HCl (pH 7.5), 150 mM NaCl, 1% Triton X-100, 0.1% SDS, 2 mM, EDTA, 1 mM NaVO3, 5 mM NaF and protease inhibitor cocktail) and sonicated on ice for 20 s at 50% amplitude. The protein concentration was determined by Bradford assay and all samples were mixed with loading buffer (60 mM Tris-HCl pH 6.8, 20 mM DTT, 2% SDS, 10% glycerol, 5% β-mercaptoethanol and 0.01% Bromophenol blue) and stored at -20° C. until WB analysis.
Western Blot Analysis: Western blot analysis for GluR1, PSD95 and GAPDH was performed as previously described. Briefly, synaptosomes preparations (15 μg total protein) were loaded into 10-15% SDS PAGE gel for electrophoresis and transferred to a polyvinylidene difluoride (PVDF) membrane in transfer buffer (10× premixed electrophoresis buffer contains 25 mM Tris, 192 mM glycine, pH 8.3; Bio-Rad). […] After final three washes with PBS-T buffer, bands were detected using enhanced chemiluminescence. […]

SMILES | levels of p4E-BP1 in crude PFC synaptosomes (Ket 10 mg/kg i.p.) | levels of pmTOR in crude PFC synaptosomes (Ket 10 mg/kg i.p.) | levels of p4E-BP1 in crude PFC synaptosomes (NV-5138 160 mg/kg oral) | levels of pmTOR in crude PFC synaptosomes (NV-5138 160 mg/kg oral) | levels of pp70S6K in crude PFC synaptosomes (NV-5138 160 mg/kg oral)
CNC1(c2ccccc2Cl)CCCCC1=O (centres unmarked) [Ket, ketamine, reference compound] | significantly increased | significantly increased | – | – | –
CC(C)(C[C@H](N)C(=O)O)C(F)F [NV-5138] | – | – | significantly increased | significantly increased | significantly increased
